Source: US20120277306A1, “COMPOSITION CONTAINING METAL-ACIDIC AMINO ACID CHELATE ACCELERATING ABSORPTION OF METAL” (priority 2006, published 2012)

What was measured:
[1] = Plasma zinc concentration over time after administration of zinc samples; assay type: in vivo, Sprague-Dawley rat; details: zinc 40 mg/kg; for plasma zinc concentration over time: blood at 0.5, 1, 2, 4, 8 hours
Description: These experimental animals were randomly assigned into a zinc sulfate-administered group, a zinc arginine-administered group and a zinc-aspartate chelate-administered group. After animals were fasted for 12 hours, each zinc sample was administered to rats, such that a zinc concentration in the sample is 40 mg/kg. After administration of the samples was complete, blood was collected at a time point of 0.5, 1, 2, 4, and 8 hours, respectively, and treated with heparin. Then, blood plasma was stored in a refrigerator and used for analysis of zinc concentrations. On the other hand, in order to examine distribution of zinc in the tissue, each zinc sample was administered to rats. After 8 hours, animals were sacrificed to remove organs. Zinc concentrations in the blood plasma and tissues were determined by fluorometry using Zinquin.

[2] = Distribution of zinc in tissues (prostate, testis) after administration of zinc samples; assay type: in vivo, Sprague-Dawley rat
[3] = test system: ZnT-2; assay: Expression of zinc transporter protein mRNA in prostatic tissue (RT-PCR); assay type: in vivo; details: compared to before oral administration of zinc
Description: In order to examine effects of zinc-aspartate complex on the expression of ZnT-2 and ZnT-4, known as zinc transporter proteins, experiments were carried out according to the following procedure.
Using Trizol Reagent (Invitrogen, USA), total RNA was extracted from 0.1 g of prostatic tissue. Using M-MLV reverse transcriptase (Invitrogen, USA), cDNA was synthesized from 5 μg of the extracted total RNA. 20 pmol of a primer was added to 3 μl of cDNA to make a volume of 20 μl and PCR was carried out as follows: initial denaturation at 95° C. for 5 min, followed by 26 cycles of denaturation at 94° C. for 1 min, annealing at an annealing temperature corresponding to conditions of each primer for 1 min and extension at 72° C. for 1 min, and final extension at 72° C. for 10 min.
PCR products were subjected to electrophoresis on 1.5% agarose gel containing EtBr, followed by confirmation of products under UV irradiation.
Effects of the zinc-aspartate complex, zinc sulfate and zinc arginine on the expression of mRNAs for ZnT-2, ZnT-4 and G3PDH were investigated.

[4] = test system: prostate cancer cell line (R3327 AT-3.1); assay: Prostate cancer model, growth of cancer cells injected into the prostate; assay type: in vivo, COP rat
Description: 10-week-old COP male rats (Japan SLC, Shizuoka, Japan) were housed and allowed to acclimate to the new environment for seven days prior to the experiment, in a breeding room maintained at a temperature of 22±2° C., humidity of 55±5%, and a 12-h light/dark (L/D) cycle (light from 8:00 a.m. to 8:00 p.m.).
5×10^4 cells/head of the prostate cancer cell line (R3327 AT-3.1) were injected into the prostate of animals and growth of cancer cells was measured.

[5] = test system: patients with chronic prostatitis; assay: Clinical trial of zinc-aspartate chelate in chronic prostatitis patients (NIH-CPSI); assay type: in vivo, human
Description: 34 patients with a medical history of more than 5 years of chronic prostatitis were administered with a zinc-aspartate chelate at a dose of 50 mg/day for 8 weeks. Clinical trials were conducted at the Department of Urology, College of Medicine, Korea University (Seoul, Korea). Prostatitis classification and symptom relief were analyzed according to National Institutes of Health Chronic Prostatitis Symptom Index (NIH-CPSI, proposed by NIH in 1995). As clinical effects by a conventional therapy, the data of the clinical study of Sungkyunkwan University School of Medicine (Seoul, Korea), published in the Korean Journal of Urology (2001), were cited.
Tables 3 and 4 below respectively show the results for chronic prostatitis patients with administration of an antibiotic and an anti-inflammatory drug as conventional therapeutic agents and with administration of the zinc-aspartate chelate, in conjunction with the results for the control group.

[6] = test system: prostatitis-induced rats (Escherichia coli ATCC 25922); assay: White rat model of chronic bacterial prostatitis, H&E histology of prostate
[7] = 4 and 8 hours after administration
[8] = 8 hours after administration, zinc 40 mg/kg, p<0.001
[9] = 15 mg/kg/day oral, 30 days, H&E stained prostate sections

Molecule: zinc-aspartate chelate
- plasma zinc concentration compared to zinc sulfate-administered group [1]: significant increase
- time point of maximum blood zinc level after administration [1]: 2 h
- plasma zinc concentration over time [1]: time-dependent increase
- intraprostatic zinc level compared to zinc sulfate- and zinc arginine-administered groups [2, 7]: significantly high zinc concentration
- intratesticular zinc level compared to zinc sulfate- and zinc arginine-administered groups [2, 7]: significantly high zinc concentration
- zinc concentration in testis [2, 8]: significantly high zinc concentration
- zinc concentration in the prostatic tissue [2, 8]: significantly high zinc concentration
- expression level of ZnT-2 mRNA [3]: highest increase
- weight of tumor mass compared to the control group ([4]; 10 mg/kg oral daily): significant weight reduction of tumor mass
- weight of tumor mass compared to the Taxel group ([4]; 10 mg/kg oral daily vs DoceTaxel 10 mg/kg once a week I.P): much lower weight of tumor mass
- side effects ([5]; 50 mg/day for 8 weeks, 34 patients): no reports showing noticeable side effects
- NIH-CPSI Dysuria, after treatment ([5]; 8 weeks, oral administration, 50 mg/day, P 0.01): 4.02
- NIH-CPSI Pain, after treatment ([5]; 8 weeks, oral administration, 50 mg/day, P 0.036): 6.82
- NIH-CPSI Quality of life, after treatment ([5]; 8 weeks, oral administration, 50 mg/day, P 0.04): 2.61
- NIH-CPSI Dysuria, before treatment ([5]; baseline, n = 34): 5.53
- NIH-CPSI Pain, before treatment ([5]; baseline, n = 34): 8.412
- NIH-CPSI Quality of life, before treatment ([5]; baseline, n = 34): 3.53
- therapeutic effects compared with conventional drug therapy and physical therapy ([5]; chronic prostatitis patients, Tables 3 and 4): almost the similar level of therapeutic effects
- fibrosis in the interstitium [6, 9]: substantially no progress of fibrosis
- infiltration of inflammatory cells into and around glandular tissues [6, 9]: no infiltration of inflammatory cells
- prostate tissue morphology ([6]; 15 mg/kg/day oral, 30 days, compared with normal group): normal tissue morphology comparable to that of the normal group
- anti-inflammatory effects ([6]; E. coli inoculated prostate, oral administration, stained prostate tissues): excellent anti-inflammatory effects

Molecule: O=S(=O)([O-])[O-].[Zn+2] [zinc sulfate]
- time point of maximum blood zinc level after administration [1]: 2 h
- plasma zinc concentration over time [1]: time-dependent increase

Molecule: N=C(N)NCCC[C@H](N)C(=O)O.[Zn] [zinc arginine]
- plasma zinc concentration compared to zinc sulfate-administered group [1]: significant increase
- plasma zinc concentration over time [1]: time-dependent increase
